Measured values published in US11191754B2, “Inhibitors of nucleotidyl transferases and uses in herpes and hepatitis viral infections therefor” (Saint Louis University, priority 2015, dated 2021).
Values joined by “and” are separate entries in the source; they are usually repeats but may differ in a detail not shown here. Equal entries are not always repeated. Where two headings read alike, the source gives them in different places.

Assays:
HSV-2 = experiment: Anti-HSV-2 replication assay (virus yield by plaque assay on Vero cells); type: cell-based, herpes simplex virus 2 (HSV-2); details: for HSV-2 inhibition category: semi-quantitative replication inhibition assay
Description: Vero cells were maintained in Dulbecco's modified Eagle's medium (DMEM) containing 3% newborn calf serum, 3% bovine growth serum, 2 mM L-glutamine and 100 IU/mL penicillin and 0.1 mg/mL streptomycin (P/S). HSV-1 #6 and HSV-2 #1 are de-identified clinical isolates from the Saint Louis University Hospital. Stocks were prepared after a single passage in cell culture and were titered by standard plaque assay (Knipe and Spang, 1982). Wild-type HSV-2 used in FIG. 3 was laboratory strain 333. […] Virus stocks were grown and titered on Vero cells (Morrison and Knipe, 1996).
Compounds to be screened were diluted in PBS supplemented to contain 2% newborn calf serum and 1% glutamine, and added in 100 μL volume to confluent cell monolayers in 24-well cluster plates. Immediately thereafter HSV-1 and HSV-2, diluted in the supplemented PBS medium, were added to the wells in 50 μl volume such that the final concentration of compound was 50 μM, 5 μM and 1 μM and the multiplicity of infection was 0.1. The plates were incubated at 37° C. for 1 hour and then virus-containing inoculum was removed and the wells were washed once in PBS. Compound, diluted to 50 μM, 5 μM and 1 μM in DMEM supplemented to contain 2% newborn calf serum and 1% each penicillin/streptomycin, was added at 0.5 mL/well. Plates were incubated at 37° C. an additional 23 hours, and then the plates were visually inspected through a phase contrast microscope for cytopathic effect, and for toxic effect. The entire contents of each well were collected by scraping. Samples were frozen at −80° C., and then subsequently thawed, sonicated, and infectious virus titer was determined by standard plaque assay on Vero cell monolayers. Because the compounds were dissolved at 10 mM in 100% DMSO, equivalent dilutions of DMSO were added to additional wells as a control for effects of the diluent. Each experiment was repeated once. EC50 values were determined as above except that serial dilutions of the compound to be tested were prepared starting at 50 μM. The inhibitory values were calculated by non-linear curve-fitting in GraphPad Prism.

human RNaseH1 = biological target: T1, human RNaseH1 (Homo sapiens, UniProt O60930); experiment: Human RNaseH1 oligonucleotide-directed RNA cleavage assay; type: biochemical; details: recombinant human RNaseH1
T1 construct: made in house; host or cells: E. coli
T1 sequence (O60930 1-286): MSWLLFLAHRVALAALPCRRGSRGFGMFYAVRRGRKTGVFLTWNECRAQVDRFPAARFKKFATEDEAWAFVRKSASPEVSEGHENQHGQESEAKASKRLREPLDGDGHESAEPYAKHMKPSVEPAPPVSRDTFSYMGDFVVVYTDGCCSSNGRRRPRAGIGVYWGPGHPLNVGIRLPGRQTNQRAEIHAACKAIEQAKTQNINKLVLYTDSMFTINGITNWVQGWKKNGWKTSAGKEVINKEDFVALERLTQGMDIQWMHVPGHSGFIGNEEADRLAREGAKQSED
Description: Recombinant HBV RNaseH and human RNaseH1 were expressed in E. coli and partially purified by nickel-affinity chromatography as previously described in Tavis, et al. (2013). The enriched extracts were dialyzed into 50 mM HEPES pH 7.3, 300 mM NaCl, 20% glycerol, and 5 mM DTT and stored in liquid nitrogen.
RNaseH activity was measured using an oligonucleotide-directed RNA cleavage assay as previously described in Hu, et al., Tavis, et al., and Cai, et al. (2013; 2013; and 2014, respectfully). Briefly, 6 μL protein extract was mixed on ice with an internally ^32P-labeled 264 nt RNA derived from the Duck Hepatitis B Virus genome (DRF+ RNA) plus 3 μg oligonucleotide D2507- or its inverse-complement oligonucleotide D2526+ as a negative control. This mixture was incubated with test compounds in 50 mM Tris pH 8.0, 190 mM NaCl, 5 mM MgCl2, 3.5 mM DTT, 0.05% NP40, 6% glycerol, and 1% DMSO at 42° C. for 90 minutes. Cleavage products were resolved by denaturing polyacrylamide gel electrophoresis, detected by autoradiography, and quantified using ImageJ. Non-specific background values were determined from the incorrect oligonucleotide negative control lane and subtracted from all experimental values. IC50 values were then calculated with GraphPad Prism using three-parameter log(inhibitor) vs. response non-linear curve fitting with the curve minimum set to zero to reflect background subtraction.

[1] = Mouse liver microsome assay; type: in vitro ADME; details: for CLint scaled at 1 μM: mouse, liver microsomes
Description: Microsomal incubations are run at a final P450 concentration of 0.25 μM. […] The mixture is prewarmed for 5 min at 37° C. To initiate the reaction a 12 mM stock of NAPDH (1.2 mM, final concentration) is added to the warmed microsomal mixture and aliquots are removed at 0, 5, 10, 20 and 30 min. […] Samples are vortexed and spun down at 3200 rpm for 5 min. The supernant is transferred to 96-deep well plates and run on LC/MS/MS.

Which HSV-2 inhibition category (HSV-2; 1 μM) does the source give for `Cc1cc(CC(C)CC(C)(C)C)n(O)c(=O)c1` (stereo not drawn) [#191, Piroctone olamine] here?
Its HSV-2 inhibition category is “intermediate (1 to 3 log10 suppression, which equals 10- to 1,000-fold reduction)”.

And the “HSV-2 Log10 suppression 1 μM” value (HSV-2; 1 μM, Vero cells, moi 0.1, 24 h, relative to DMSO control)?
Its value is 1.70 log10.

And the “HSV-2 replication inhibition, fold” value (HSV-2; 5 μM)?
The value was 39,000 fold.

What about the HSV-2 inhibition category (HSV-2; 5 μM) of the same compound?
Its HSV-2 inhibition category is “strong (3 to 6 log10 suppression, or 1,000- to 1,000,000-fold reduction)”.

And the “suppression of replication of three primary clinical isolates of HSV-2” value (HSV-2; 5 μM, Vero cells, moi 0.1, 24 h (FIG. 2))?
The value was greater than 4.7 log10.

What about the “HSV-2 Log10 suppression 5 μM” value (HSV-2; 5 μM, Vero cells, moi 0.1, 24 h, relative to DMSO control) of the same compound?
Its value is 4.59 log10 and 4.53 log10.

What about the “inhibition of wild-type HSV-2” value (HSV-2; 5 μM, laboratory strain 333, Vero cells, 24 h (FIG. 3)) of the same compound?
Its value is “efficiently inhibited”.

What about the HSV-2 inhibition category (HSV-2; 50 μM) of the same compound?
The HSV-2 inhibition category was “strong (3 to 6 log10 suppression, or 1,000- to 1,000,000-fold reduction)”.

And the “HSV-2 Log10 suppression 50 μM” value (HSV-2; 50 μM, Vero cells, moi 0.1, 24 h, relative to DMSO control)?
The value was 4.25 log10.

And the “Anti-human RNase H1” value (human RNaseH1)?
Its value is “did not inhibit”.

What about the ER ([1]; extraction ratio, mouse liver microsomes) of the same compound?
The ER was 0.09.

And the Non-P450 turn-over ([1]; mouse liver microsomes)?
The Non-P450 turn-over was “No”.

And the half-life at 1 μM ([1]; mouse liver microsomes, 1 μM compound, read-out: t ½)?
The half-life at 1 μM was greater than 2 h.

And the CLint scaled at 1 μM ([1]; 1 μM compound, read-out: CL ‘hep)?
The CLint scaled at 1 μM was 8 mL/min/kg.

What about the CLint scaled at 1 μM ([1]; 1 μM compound, read-out: CL’int) of the same compound?
Its CLint scaled at 1 μM is 9 mL/min/kg.
